Test results as given in publication PMC8657723, “Novel Pituitary Actions of TAC4 Gene Products in Teleost” (International Journal of Molecular Sciences, 2021).

System: grass carp pituitary cells
Assay: Receptor antagonist / pathway inhibitor co-treatment on HK2-induced mRNA expression in grass carp pituitary cells
Type: cell-based, grass carp (Ctenopharyngodon idellus)
Settings: inhibitor 1 μM with HK2 1 μM, 24 h co-treatment
Method: In this experiment, a pharmacological approach was used to clarify the receptor specificity for SLα and PRL regulation by HK2. Pituitary cells were incubated for 24 h with grass carp HK2 (1 μM) with simultaneous treatment of the NK1R antagonist Rolaptiant (10 μM) or NK3R antagonist SB222200 (10 μM), respectively.
Figure 7 The receptor specificity and signal transduction for PRL and SLα regulation by HK2 in grass carp pituitary cells. (A) Effects of NKR subtype-specific antagonists on HK2-induced PRL and SLα mRNA expression. Pituitary cells were challenged for 24 h with grass carp HK2 (1 μM) in the presence or absence of the NK1R antagonist Rolaptiant (10 μM) or NK3R antagonist SB22200 (10 μM), respectively. (B) Effects of 24-h co-treatment with AC inhibitor MDL12330A (10 μM) or PKA inhibitor H89 (10 μM) on HK2-induced PRL and SLα mRNA expression. (C) Effects of 24-h co-treatment with PLC inhibitor U73122, PKC inhibitor GF109203X (10 μM), or IP3 receptor blocker 2-APB (10 μM) on HK2-induced PRL and SLα mRNA expression. (D) Effects of 24-h co-treatment with the VSCC inhibitor nifedipine (10 μM), CaM antagonist calmidazolium (1 μM) or CaMK-II blocker KN62 (10 μM) on HK2-induced PRL and SLα mRNA expression. After drug treatment, the total RNA of the cells was extracted by the Trizol method, and the expression of various genes was detected by RT-PCR. Data presented were expressed as mean ± SEM, and the differences between groups were significant at p-value < 0.05 by labeling diverse letters.
Figure 8 The receptor specificity and signal transduction for CART2, NMB1, and UTS1 regulation by HK2 in grass carp pituitary cells. (A) The pituitary cells were treated for 24 h with grass carp HK2 (1 μM) in the presence or absence of NK1R antagonist Rolaptiant (10 μM) or NK3R antagonist SB222200 (10 μM). (B) Effects of 24-h co-treatment with an AC inhibitor MDL12330A (10 μM) or PKA inhibitor H89 (10 μM) on HK2-induced CART2, UTS1, or NMB1 mRNA expression. (C) Effects of 24h co-treatment with a PLC inhibitor U73122, PKC inhibitor GF109203X (10 μM), or IP3 receptor blocker 2-APB (10 μM) on HK2-induced CART2, UTS1 or NMB1 mRNA expression. (D) Effects of 24-h co-treatment with the VSCC inhibitor nifedipine (10 μM), CaM antagonist calmidazolium (1 μM), or CaMK-II blocker KN62 (10 μM) on HK2-induced CART2, UTS1 or NMB1 mRNA expression.

SMILES | effect on HK2-induced CART2 mRNA expression | effect on HK2-induced NMB1 mRNA expression | effect on HK2-induced PRL mRNA expression | effect on HK2-induced SLα mRNA expression | effect on HK2-induced UTS1 mRNA expression
Clc1ccc(C(c2ccc(Cl)cc2)n2cc[n+](CC(OCc3ccc(Cl)cc3Cl)c3ccc(Cl)cc3Cl)c2)cc1 (stereo not drawn) [calmidazolium] | suppressed/totally abolished | suppressed/totally abolished | suppressed or totally abolished | suppressed or totally abolished | suppressed/totally abolished

Same assay, conditions: inhibitor 10 μM with HK2 1 μM, 24 h co-treatment

SMILES | effect on HK2-induced CART2 mRNA expression | effect on HK2-induced NMB1 mRNA expression | effect on HK2-induced PRL mRNA expression | effect on HK2-induced SLα mRNA expression | effect on HK2-induced UTS1 mRNA expression
NCCOB(c1ccccc1)c1ccccc1 [2-APB] | effective in blocking | effective in blocking | totally abolished | totally abolished | effective in blocking
CN(C)CCCn1cc(C2=C(c3c[nH]c4ccccc34)C(=O)NC2=O)c2ccccc21 [GF109203X] | effective in blocking | effective in blocking | totally abolished | totally abolished | effective in blocking
O=S(=O)(NCCNC/C=C/c1ccc(Br)cc1)c1cccc2cnccc12 [H89] | abolished | abolished | effective in blocking | effective in blocking | abolished
CN([C@@H](Cc1ccc(OS(=O)(=O)c2cccc3cnccc23)cc1)C(=O)N1CCN(c2ccccc2)CC1)S(=O)(=O)c1cccc2cnccc12 [KN62] | suppressed/totally abolished | suppressed/totally abolished | suppressed or totally abolished | suppressed or totally abolished | suppressed/totally abolished
Cl.c1ccc(C2CCCC2NC2=NCCCCCCCCCCC2)cc1 (stereo not drawn) [MDL12330A] | abolished | abolished | effective in blocking | effective in blocking | abolished
C[C@@H](OC[C@@]1(c2ccccc2)CC[C@]2(CCC(=O)N2)CN1)c1cc(C(F)(F)F)cc(C(F)(F)F)c1 [Rolaptiant] | – | not with the NK1R antagonist Rolaptiant | could not be totally abolished | only partially block | –
CC[C@H](NC(=O)c1c(C)c(-c2ccccc2)nc2ccccc12)c1ccccc1 [SB222200] | totally abolished | totally abolished | could not be totally abolished | totally blocked | totally abolished
COc1ccc2c(c1)CC[C@@H]1[C@@H]2CC[C@]2(C)[C@@H](NCCCCCCN3C(=O)C=CC3=O)CC[C@@H]12 [U73122] | effective in blocking | effective in blocking | totally abolished | totally abolished | effective in blocking
COC(=O)C1=C(C)NC(C)=C(C(=O)OC)C1c1ccccc1[N+](=O)[O-] [nifedipine] | suppressed/totally abolished | suppressed/totally abolished | suppressed or totally abolished | suppressed or totally abolished | suppressed/totally abolished
